Patent publication EP3868759A1, “2,3,5-SUBSTITUTED PYRROLO[2,3-B]PYRIDINES AS ERBB MODULATORS USEFUL FOR TREATING CANCER” (PearlRiver Bio GmbH, priority 2020, dated 2021)

Assays:
EGFR (del746-750) = EGFR (del746-750) (Homo sapiens, UniProt P00533, DEL746-750); assay: Lance assay, EGFR (del746-750); conditions: biochemical Lance assay
[1] = system: Her2 Exon 20 InsYVMA Ba/F3; assay: CellTiter-Glo cell viability, Her2 Exon 20 InsYVMA Ba/F3; type: cell-based; conditions: Mus musculus, BaF3, 72 h, read-out: Her2 Exon 20 InsYVMA Ba/F3 CTG IC50
Experimental: (§1) The CellTiter-Glo Luminescent Cell Viability Assay (Promega) is a homogeneous method of determining the number of viable cells in culture. It is based on quantification of ATP, indicating the presence of metabolically active cells. Cells are seeded on day 1 at cell numbers that assure assay linearity and optimal signal intensity. After incubation for 24h in humidified chambers at 37°C and 5% CO2, compounds in DMSO are added at different concentrations. Cells are further incubated for 72 h at 37°C and 5% CO2. Cells treated with the compound vehicle DMSO are used as positive controls and cells treated with 10 µM Staurosporine serve as negative controls. At day 5 the CellTiter Glo Reagent is prepared according to the instructions of the kit (Promega Inc.): Reagent is mixed 1:1 with cell culture medium. Thereon, mixture and assay plates are equilibrated at room temperature for 20 min. Equal volumes of the reagent-medium-mixture is added to the volume of culture medium present in each well. The plates are mixed at ∼200 rpm for 2 minutes on an orbital shaker. The microplates are then incubated at room temperature for 10 minutes for stabilization of the luminescent signal. Following incubation the luminescence is recorded on a Victor microplate reader (Perkin Elmer) using a 200 ms integration time. The data is then analyzed with Excel using the XLFIT Plugin (dose response Fit 205) for IC50-determination. As quality control the Z'-factor is calculated from 16 positive and negative control values. Only assay results showing a Z'-factor ≥ 0.5 are used for further analysis.

HER2 INS YVMA = target: T1, HER2 INS YVMA (Homo sapiens, UniProt P04626, INS775YVMA); assay: Lance Kinase Activity Assay, Her2 Exon 20 InsYVMA; conditions: biochemical Lance assay
T1 construct: purchased DPF
Experimental: This protocol describes how the Lance Kinase Activity Assay was performed to determine IC50 values of compounds of general formula (I) against HER2 INS YVMA. The principle behind this enzymatic assay is based upon the phosphorylation of the Ulight-peptide substrate. It is detected by using a specific EU-labeled anti-phospho peptide antibody. The binding of the Eu labeled anti-phospho peptide antibody to the phosphorylated ULight labeled peptide gives rise to a FRET-signal. Binding of an inhibitor to the kinase prevents phosphorylation of the Ulight-substrate, resulting in a loss of FRET. In table 2 is summarized the relevant information for the LANCE assay. Table 2: Reagents, stock concentrations and final assay concentrations for Her2 INS YVMA.
The compounds of general formula (I) summarized in Table 3 were serial diluted from a 10 mM DMSO stock solution 1:3 over 8 steps in a total volume of 20 µl. For every sample, 8 µl of kinase-substrate mix was transferred into a suitable assay plate (e.g. Corning #3673). Compound was added via pintool transfer (10nl/well) using a Biomek FX robot (BeckmanCoulter). Reaction was started by addition of 2µl ATP working solution and mixed using variomag teleshaker (Thermo Fischer Scientific). After 1 h incubation at room temperature the reaction was stopped with 10µl detection mix containing the Eu-labeled phosphospecific antibody and 10mM EDTA. After a second incubation period of 1 h at room temperature the FRET signal was measured at 340 nm excitation, 665 nm and 615 nm emission (for the ULight-substrate and Eu-AB, respectively) with an Envision spectrophotometer (Perkin Elmer, Waltham, MA, USA) with 50 µs delay and 300 µs integration time. IC50 values were determined from the sigmoidal dose response curves with the software Quattro Workflow (Quattro GmbH, Munich, Germany).

EGFR wt = EGFR wt (Homo sapiens, UniProt P00533); assay: Lance assay, EGFR wt; conditions: biochemical Lance assay
EGFR L858R T790M Ba/F3 = assay: CellTiter-Glo cell viability, EGFR L858R T790M Ba/F3; type: cell-based; conditions: Mus musculus, BaF3, 72 h, read-out: EGFR L858R T790M Ba/F3 CTG IC50 /
Experimental: as §1

EGFR L858R = EGFR L858R (Homo sapiens, UniProt P00533, L858R); assay: Lance assay, EGFR L858R; conditions: biochemical Lance assay
A431 = assay: CellTiter-Glo cell viability, A431; type: cell-based; conditions: Homo sapiens, A-431, 72 h, read-out: A431 CTG IC50
Experimental: as §1

EGFR T790M L858R = EGFR T790M L858R (Homo sapiens, UniProt P00533, L858R/T790M); assay: Lance assay, EGFR T790M L858R; conditions: biochemical Lance assay
[2] = system: EGFR Exon 20 InsNPH Ba/F3; assay: CellTiter-Glo cell viability, EGFR Exon 20 InsNPH Ba/F3; type: cell-based; conditions: Mus musculus, BaF3, 72 h, read-out: EGFR Exon 20 InsNPH Ba/F3 CTG IC50
Experimental: as §1

EGFR vIII Ba/F3 = assay: CellTiter-Glo cell viability, EGFR vIII Ba/F3; type: cell-based; conditions: Mus musculus, BaF3, 72 h, read-out: EGFR vIII Ba/F3 CTG IC50 /
Experimental: as §1

EGFR L858R Ba/F3 = assay: CellTiter-Glo cell viability, EGFR L858R Ba/F3; type: cell-based; conditions: Mus musculus, BaF3, 72 h, read-out: EGFR L858R Ba/F3 CTG IC50 /
Experimental: as §1

Sequence of EGFR wt (P00533 25-1210): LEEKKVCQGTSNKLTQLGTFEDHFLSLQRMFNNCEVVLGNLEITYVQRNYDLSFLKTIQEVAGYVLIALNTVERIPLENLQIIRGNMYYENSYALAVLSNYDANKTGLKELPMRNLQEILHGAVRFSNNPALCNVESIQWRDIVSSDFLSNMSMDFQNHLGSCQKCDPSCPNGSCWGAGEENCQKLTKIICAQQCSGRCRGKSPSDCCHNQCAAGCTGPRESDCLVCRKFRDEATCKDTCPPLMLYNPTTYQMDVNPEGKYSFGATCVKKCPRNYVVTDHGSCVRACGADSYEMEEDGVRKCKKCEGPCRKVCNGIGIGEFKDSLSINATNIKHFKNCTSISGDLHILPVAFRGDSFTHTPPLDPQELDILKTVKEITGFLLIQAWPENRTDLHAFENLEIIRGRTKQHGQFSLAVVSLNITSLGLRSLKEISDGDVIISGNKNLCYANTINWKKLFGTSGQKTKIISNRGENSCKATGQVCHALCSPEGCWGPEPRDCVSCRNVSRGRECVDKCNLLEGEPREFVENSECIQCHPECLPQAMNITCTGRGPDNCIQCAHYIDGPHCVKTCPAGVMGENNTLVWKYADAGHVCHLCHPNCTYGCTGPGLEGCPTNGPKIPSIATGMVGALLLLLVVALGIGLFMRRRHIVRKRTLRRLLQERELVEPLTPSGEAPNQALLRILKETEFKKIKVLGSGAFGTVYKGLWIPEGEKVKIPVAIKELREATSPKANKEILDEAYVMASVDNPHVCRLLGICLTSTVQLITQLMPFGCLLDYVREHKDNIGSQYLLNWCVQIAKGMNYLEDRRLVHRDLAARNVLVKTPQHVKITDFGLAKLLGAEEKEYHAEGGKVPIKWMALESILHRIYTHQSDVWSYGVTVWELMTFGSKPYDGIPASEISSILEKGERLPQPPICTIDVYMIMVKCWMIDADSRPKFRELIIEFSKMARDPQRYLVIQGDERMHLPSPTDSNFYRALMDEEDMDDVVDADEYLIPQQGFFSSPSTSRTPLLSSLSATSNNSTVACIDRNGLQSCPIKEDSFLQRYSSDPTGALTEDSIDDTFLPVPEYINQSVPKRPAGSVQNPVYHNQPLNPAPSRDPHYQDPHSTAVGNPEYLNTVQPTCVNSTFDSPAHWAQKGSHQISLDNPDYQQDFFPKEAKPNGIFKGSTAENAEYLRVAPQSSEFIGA
T1 sequence (P04626 with tags, fused parts or gaps INS775YVMA): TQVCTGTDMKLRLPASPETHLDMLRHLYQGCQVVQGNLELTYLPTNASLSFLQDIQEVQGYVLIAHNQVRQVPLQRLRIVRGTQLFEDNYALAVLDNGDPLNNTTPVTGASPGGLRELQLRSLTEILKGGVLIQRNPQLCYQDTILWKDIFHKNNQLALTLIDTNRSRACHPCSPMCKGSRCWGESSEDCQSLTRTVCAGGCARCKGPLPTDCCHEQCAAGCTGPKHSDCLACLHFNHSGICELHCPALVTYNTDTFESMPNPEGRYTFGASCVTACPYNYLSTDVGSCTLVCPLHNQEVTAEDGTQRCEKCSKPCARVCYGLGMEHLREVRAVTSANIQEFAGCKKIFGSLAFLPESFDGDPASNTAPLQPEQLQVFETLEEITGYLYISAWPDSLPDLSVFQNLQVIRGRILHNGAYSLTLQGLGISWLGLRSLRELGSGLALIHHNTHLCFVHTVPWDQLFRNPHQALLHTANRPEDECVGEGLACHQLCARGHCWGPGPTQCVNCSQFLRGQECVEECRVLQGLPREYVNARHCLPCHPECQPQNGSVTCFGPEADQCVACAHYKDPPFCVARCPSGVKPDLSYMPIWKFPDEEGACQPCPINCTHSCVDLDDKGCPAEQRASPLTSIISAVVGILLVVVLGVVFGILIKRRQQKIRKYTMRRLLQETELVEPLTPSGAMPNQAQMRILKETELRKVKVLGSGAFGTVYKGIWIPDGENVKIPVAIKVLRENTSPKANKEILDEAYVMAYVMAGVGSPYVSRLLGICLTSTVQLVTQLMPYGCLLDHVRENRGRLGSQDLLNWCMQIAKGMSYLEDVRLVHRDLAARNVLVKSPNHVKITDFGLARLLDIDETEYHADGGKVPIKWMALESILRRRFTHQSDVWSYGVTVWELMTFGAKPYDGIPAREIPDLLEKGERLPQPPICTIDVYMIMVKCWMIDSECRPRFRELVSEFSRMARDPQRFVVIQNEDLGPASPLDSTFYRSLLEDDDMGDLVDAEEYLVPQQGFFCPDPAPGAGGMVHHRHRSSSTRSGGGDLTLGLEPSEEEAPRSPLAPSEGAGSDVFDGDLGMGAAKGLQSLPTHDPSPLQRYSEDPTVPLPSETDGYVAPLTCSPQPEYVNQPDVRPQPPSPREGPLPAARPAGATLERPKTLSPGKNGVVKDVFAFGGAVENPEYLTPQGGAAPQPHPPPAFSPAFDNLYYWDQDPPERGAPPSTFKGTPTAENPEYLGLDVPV
Sequence of EGFR T790M L858R (P00533 25-1210 T790M/L858R): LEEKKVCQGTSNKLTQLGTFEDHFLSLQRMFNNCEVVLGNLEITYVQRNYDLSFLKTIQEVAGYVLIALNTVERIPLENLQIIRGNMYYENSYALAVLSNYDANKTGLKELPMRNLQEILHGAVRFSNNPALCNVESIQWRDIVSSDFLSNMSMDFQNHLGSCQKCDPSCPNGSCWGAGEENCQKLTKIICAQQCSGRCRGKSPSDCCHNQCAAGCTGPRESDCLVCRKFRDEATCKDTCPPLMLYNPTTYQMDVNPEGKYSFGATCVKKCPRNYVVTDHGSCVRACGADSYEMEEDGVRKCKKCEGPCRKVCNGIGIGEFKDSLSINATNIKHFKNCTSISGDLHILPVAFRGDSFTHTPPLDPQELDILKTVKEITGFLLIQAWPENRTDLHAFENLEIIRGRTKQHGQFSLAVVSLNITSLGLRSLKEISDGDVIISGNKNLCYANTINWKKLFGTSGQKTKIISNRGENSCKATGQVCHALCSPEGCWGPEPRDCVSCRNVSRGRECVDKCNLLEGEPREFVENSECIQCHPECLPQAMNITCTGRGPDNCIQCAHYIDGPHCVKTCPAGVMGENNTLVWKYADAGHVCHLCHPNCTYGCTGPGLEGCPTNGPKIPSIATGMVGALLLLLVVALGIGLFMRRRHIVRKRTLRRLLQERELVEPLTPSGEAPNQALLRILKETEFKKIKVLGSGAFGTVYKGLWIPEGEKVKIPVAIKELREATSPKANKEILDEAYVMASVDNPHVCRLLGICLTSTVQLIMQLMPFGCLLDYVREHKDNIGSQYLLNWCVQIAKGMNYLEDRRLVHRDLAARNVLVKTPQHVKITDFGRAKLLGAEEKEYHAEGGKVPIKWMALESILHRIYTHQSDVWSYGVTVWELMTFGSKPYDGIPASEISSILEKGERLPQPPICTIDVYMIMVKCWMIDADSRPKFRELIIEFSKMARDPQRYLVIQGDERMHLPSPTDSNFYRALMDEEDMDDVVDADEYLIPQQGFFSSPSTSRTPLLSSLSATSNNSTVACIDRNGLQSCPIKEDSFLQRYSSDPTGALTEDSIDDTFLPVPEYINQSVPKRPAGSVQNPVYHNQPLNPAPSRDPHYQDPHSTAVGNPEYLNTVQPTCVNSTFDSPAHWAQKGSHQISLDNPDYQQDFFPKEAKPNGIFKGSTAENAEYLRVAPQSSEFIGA
Sequence of EGFR L858R (P00533 25-1210 L858R): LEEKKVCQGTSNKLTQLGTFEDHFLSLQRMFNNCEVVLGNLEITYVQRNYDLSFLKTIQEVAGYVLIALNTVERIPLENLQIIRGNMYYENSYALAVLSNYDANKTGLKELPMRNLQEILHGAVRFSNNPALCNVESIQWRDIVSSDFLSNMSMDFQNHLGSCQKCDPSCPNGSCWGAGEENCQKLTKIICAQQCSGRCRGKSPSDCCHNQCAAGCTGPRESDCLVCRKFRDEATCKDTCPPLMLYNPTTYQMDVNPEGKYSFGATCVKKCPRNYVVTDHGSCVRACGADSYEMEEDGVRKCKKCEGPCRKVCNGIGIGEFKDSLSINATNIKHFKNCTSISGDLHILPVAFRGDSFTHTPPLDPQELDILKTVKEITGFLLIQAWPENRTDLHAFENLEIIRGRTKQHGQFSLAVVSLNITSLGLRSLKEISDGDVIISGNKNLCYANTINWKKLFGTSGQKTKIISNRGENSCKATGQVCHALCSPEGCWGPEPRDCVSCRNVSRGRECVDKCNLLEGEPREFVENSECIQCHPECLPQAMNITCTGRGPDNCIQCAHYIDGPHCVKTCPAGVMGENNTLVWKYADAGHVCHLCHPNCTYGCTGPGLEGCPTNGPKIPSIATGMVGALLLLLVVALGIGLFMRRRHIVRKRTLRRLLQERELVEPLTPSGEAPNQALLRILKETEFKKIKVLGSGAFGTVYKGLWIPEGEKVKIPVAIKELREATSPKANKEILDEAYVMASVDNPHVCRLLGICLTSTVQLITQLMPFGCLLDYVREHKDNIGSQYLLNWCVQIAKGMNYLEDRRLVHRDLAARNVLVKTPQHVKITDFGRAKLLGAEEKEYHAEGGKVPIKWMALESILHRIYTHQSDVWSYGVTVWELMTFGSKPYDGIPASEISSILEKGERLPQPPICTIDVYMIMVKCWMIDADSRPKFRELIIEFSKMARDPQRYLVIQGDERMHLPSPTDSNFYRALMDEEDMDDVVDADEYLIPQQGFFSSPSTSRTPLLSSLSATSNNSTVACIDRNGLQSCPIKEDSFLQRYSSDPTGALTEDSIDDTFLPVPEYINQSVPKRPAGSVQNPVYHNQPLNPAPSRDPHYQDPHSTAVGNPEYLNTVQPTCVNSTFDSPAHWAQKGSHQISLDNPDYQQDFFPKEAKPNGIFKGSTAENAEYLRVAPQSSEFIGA

SMILES | IC50 (EGFR (del746-750)) | IC50 [1] | IC50 (HER2 INS YVMA) | IC50 (EGFR wt) | IC50 (EGFR L858R T790M Ba/F3) | IC50 (EGFR L858R) | IC50 (A431) | IC50 (EGFR T790M L858R) | IC50 [2] | IC50 (EGFR vIII Ba/F3) | IC50 (EGFR L858R Ba/F3)
C=CC(=O)Nc1cc(-c2c(-c3cnn(C)c3)[nH]c3ncc(-c4ccnn4C)cc23)ccc1C [Example 27, N-(2-methyl-5-(2-(1-methyl-1H-pyrazol-4-yl)-5-(-methyl-1 H-pyrazol-5-yl)-1 H-pyrrolo[2,3-b]pyridin-3-yl)phenyl)acrylamide] | ≤ 50 nM | 500 to 1000 nM | 100 to 500 nM | ≤ 50 nM | 100 to 500 nM | ≤ 50 nM | 1000 to 10000 nM | ≤ 50 nM | 100 to 500 nM | ≤ 50 nM | ≤ 50 nM
C=CC(=O)Nc1cc(-c2c(-c3cnn(C)c3)[nH]c3ncc(-c4cnn(CC)c4)cc23)ccc1C [Example 28, N-(5-(5-(1-ethyl-1H-pyrazol-4-yl)-2-(1-methyl-1 H-pyrazol-4-yl)-1 H-pyrrolo[2,3-b]pyridin-3-yl)-2-methylphenyl)acrylamide] | ≤ 50 nM | 100 to 500 nM | 50 to 100 nM | ≤ 50 nM | 50 to 100 nM | ≤ 50 nM | 1000 to 10000 nM | ≤ 50 nM | ≤ 50 nM | ≤ 50 nM | ≤ 50 nM
C=CC(=O)Nc1cc(-c2c(-c3cnn(C)c3)[nH]c3ncc(-c4cnn(C)c4C)cc23)ccc1C [Example 29, N-(5-(5-(1,5-dimethyl-1H-pyrazol-4-yl)-2-(1-methyl-1 H-pyrazol-4-yl)-1 H-pyrrolo[2,3-b]pyridin-3-yl)-2-methylphenyl)acrylamide] | ≤ 50 nM | 100 to 500 nM | ≤ 50 nM | ≤ 50 nM | ≤ 50 nM | ≤ 50 nM | 500 to 1000 nM | ≤ 50 nM | ≤ 50 nM | ≤ 50 nM | ≤ 50 nM
C=CC(=O)Nc1cc(-c2c(-c3cnn(C)c3)[nH]c3ncc(-c4cn(C)nc4C)cc23)ccc1C [Example 30, N-(5-(5-(1,3-dimethyl-1H-pyrazol-4-yl)-2-(1-methyl-1 H-pyrazol-4-yl)-1 H-pyrrolo[2,3-b]pyridin-3-yl)-2-methylphenyl)acrylamide] | ≤ 50 nM | 500 to 1000 nM | 100 to 500 nM | ≤ 50 nM | 100 to 500 nM | ≤ 50 nM | 1000 to 10000 nM | ≤ 50 nM | 100 to 500 nM | 100 to 500 nM | ≤ 50 nM
C=CC(=O)Nc1cc(-c2c(-c3cnn(C)c3)[nH]c3ncc(-c4cnn(C5CC5)c4)cc23)ccc1C [Example 31, N-(5-(5-(1-cyclopropyl-1H-pyrazol-4-yl)-2-(1-methyl-1 H-pyrazol-4-yl)-1 H-pyrrolo[2,3-b]pyridin-3-yl)-2-methylphenyl)acrylamide] | ≤ 50 nM | 100 to 500 nM | 50 to 100 nM | ≤ 50 nM | ≤ 50 nM | ≤ 50 nM | 1000 to 10000 nM | ≤ 50 nM | 50 to 100 nM | ≤ 50 nM | ≤ 50 nM
C=CC(=O)Nc1cc(-c2c(-c3cnn(C)c3)[nH]c3ncc(-c4cnn(CC(C)C)c4)cc23)ccc1C [Example 32, N-(5-(5-(1-isobutyl-1H-pyrazol-4-yl)-2-(1-methyl-1H-pyrazol-4-yl)-1H-pyrrolo[2,3-b]pyridin-3-yl)-2-methylphenyl)acrylamide] | ≤ 50 nM | 100 to 500 nM | 100 to 500 nM | ≤ 50 nM | 100 to 500 nM | ≤ 50 nM | 1000 to 10000 nM | 100 to 500 nM | 50 to 100 nM | ≤ 50 nM | ≤ 50 nM
C=CC(=O)Nc1cc(-c2c(-c3cnn(C)c3)[nH]c3ncc(-c4cnn(CCOC)c4)cc23)ccc1C [Example 33, N-(5-(5-(1-(2-methoxyethyl)-1 H-pyrazol-4-yl)-2-(1-methyl-1 H-pyrazol-4-yl)-1H-pyrrolo[2,3-b]pyridin-3-yl)-2-methylphenyl)acrylamide] | ≤ 50 nM | 500 to 1000 nM | 50 to 100 nM | ≤ 50 nM | 100 to 500 nM | ≤ 50 nM | 1000 to 10000 nM | ≤ 50 nM | 100 to 500 nM | ≤ 50 nM | ≤ 50 nM
C=CC(=O)Nc1cc(-c2c(-c3cnn(C)c3)[nH]c3ncc(-c4cnn(CCN(C)C)c4)cc23)ccc1C [Example 34, N-(5-(5-(1-(2-(dimethylamino)ethyl)-1H-pyrazol-4-yl)-2-(1-methyl-1H-pyrazol-4-yl)-1H-pyrrolo[2,3-b]pyridin-3-yl)-2-methylphenyl)acrylamide] | ≤ 50 nM | > 10000 nM | 500 to 1000 nM | ≤ 50 nM | 1000 to 10000 nM | ≤ 50 nM | 1000 to 10000 nM | 100 to 500 nM | 1000 to 10000 nM | 1000 to 10000 nM | > 10000 nM
C=CC(=O)Nc1cc(-c2c(-c3cnn(C)c3)[nH]c3ncc(-c4cnn(C5COC5)c4)cc23)ccc1C [Example 35, N-(2-methyl-5-(2-(1-methyl-1H-pyrazol-4-yl)-5-(1-(oxetan-3-yl)-1 H-pyrazol-4-yl)-1H-pyrrolo[2,3-b]pyridin-3-yl)phenyl)acrylamide] | ≤ 50 nM | 1000 to 10000 nM | 100 to 500 nM | ≤ 50 nM | 100 to 500 nM | ≤ 50 nM | 1000 to 10000 nM | ≤ 50 nM | 500 to 1000 nM | 100 to 500 nM | ≤ 50 nM
